Data from article PMC8222343, “A new non-classical fold of varroa odorant-binding proteins reveals a wide open internal cavity” (Scientific Reports, 2021).
pKd: −log10 of the molar value.

Key:
Format in all cases: binding
VdesOBP2 = molecular target: T1, VdesOBP2 (Varroa destructor, UniProt A0A7M7JBN7); assay: intrinsic tryptophan fluorescence quenching; conditions: excitation 295 nm, emission 335-340 nm
T1 sequence (A0A7M7JBN7 16-163 limits assumed): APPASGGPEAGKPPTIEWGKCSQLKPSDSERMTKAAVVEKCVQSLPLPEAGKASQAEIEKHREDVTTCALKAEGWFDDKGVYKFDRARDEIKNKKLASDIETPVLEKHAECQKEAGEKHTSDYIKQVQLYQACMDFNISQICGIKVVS

VdesOBP1 = molecular target: T2, VdesOBP1 (Varroa destructor, UniProt A0A7M7KVA6); assay: intrinsic tryptophan fluorescence quenching
T2 construct: 147 residues; monomer
T2 sequence (A0A7M7KVA6 16-162): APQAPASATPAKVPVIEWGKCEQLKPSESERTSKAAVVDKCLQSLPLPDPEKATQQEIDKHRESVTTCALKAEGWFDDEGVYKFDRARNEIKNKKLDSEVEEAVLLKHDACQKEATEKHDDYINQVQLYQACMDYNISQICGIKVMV

VdesOBP5 = molecular target: T3, VdesOBP5 (Varroa destructor, UniProt A0A7M7KHR4); assay: fluorescent probe titration; conditions: read-out: KNPN
T3 sequence (A0A7M7KHR4 22-231): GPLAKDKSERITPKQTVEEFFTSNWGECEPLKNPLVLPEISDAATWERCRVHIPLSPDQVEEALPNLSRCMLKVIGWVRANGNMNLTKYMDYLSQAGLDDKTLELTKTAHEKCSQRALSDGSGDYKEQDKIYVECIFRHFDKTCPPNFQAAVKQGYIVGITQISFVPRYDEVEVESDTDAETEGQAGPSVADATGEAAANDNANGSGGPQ
Source text: fluorescent probe titration on VdesOBP5 | with VdesOBP4 and VdesOBP5 we obtained clear binding curves using 1-NPN as the fluorescent reporter

[1] = excitation 295 nm, emission 335-340 nm

| Compound | quenching of intrinsic tryptophan fluorescence (VdesOBP2) | quenching of intrinsic tryptophan fluorescence (VdesOBP1; [1]) | quenching of intrinsic tryptophan fluorescence (VdesOBP1; dose-dependent quenching, probe emission itself unchanged) | pKd (VdesOBP5) |
| --- | --- | --- | --- | --- |
| COc1cc(/C=C/C=O)ccc1O [coniferyl aldehyde] | they determined significant quenching of intrinsic tryptophan fluorescence in VdesOBP1 and VdesOBP2 | they determined significant quenching of intrinsic tryptophan fluorescence in VdesOBP1 and VdesOBP2 |  |  |
| CC1=C(C=O)C(C)(C)CC=C1 [safranal] | they determined significant quenching of intrinsic tryptophan fluorescence in VdesOBP1 and VdesOBP2 | they determined significant quenching of intrinsic tryptophan fluorescence in VdesOBP1 and VdesOBP2 |  |  |
| c1ccc(Nc2cccc3ccccc23)cc1 [N-phenyl-1-naphthylamine] |  |  | we observed a dose-dependent quenching of the intrinsic tryptophan fluorescence | 5.37 |
| COc1cc(C=O)ccc1O [vanillin] | they determined significant quenching of intrinsic tryptophan fluorescence in VdesOBP1 and VdesOBP2 | they determined significant quenching of intrinsic tryptophan fluorescence in VdesOBP1 and VdesOBP2 |  |  |
